Assay: gradient 5% acetonitrile 3 min, to 50% in 2 min, to 85% in 15 min, held 3 min, 100 µL/min
Conditions: column: Zorbax Extend-C18 2.1 x 50 mm; eluents: water / acetonitrile, 0.1% formic acid
Outline: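 Each retention time is based on an adduct peak selected computationally and verified by manual inspection. Measurements used HPLC–quadrupole time-of-flight mass spectrometry in positive and negative ionization mode on mixtures of ~100 pure standards. Chromatography ran on a Zorbax Extend-C18 column (2.1 × 50 mm, 1.8 μm) at 100 μL/min with water and acetonitrile, each containing 0.1% formic acid, and dead and dwell volumes of 40 μL and 900 μL.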

| SMILES | RP-LC retention time [s] |
| --- | --- |
| Cc1ccc(NC(=O)Cn2nc3c(Oc4ccccc4C)nccn3c2=O)cc1C | 923 |
| CCOc1ccc(N2C(=O)C3N=NN(Cc4nc(-c5ccccc5Br)no4)C3C2=O)cc1 (stereo not given) | 1010 |
| CCc1noc2nc(C)n(CC(=O)NCc3ccc(OC)cc3)c(=O)c12 | 755 |
| CCn1cc(CN2CCC(C(=O)NCc3ccc(OC)cc3OC)CC2)c2cc(OC)ccc21 | 716 |
| Cc1ccccc1CC(=O)Nc1ccc2c(c1)Sc1ncccc1C(=O)N2C | 806 |
| CCC(C)(C(=O)NC1CCCCC1)N(Cc1ccco1)C(=O)c1ccc2c(c1)OCO2 (stereo not given) | 564 |
| CCCCOc1ccc(C(=O)N2CCCC2c2nc(-c3ccc(OC)c(OC)c3)no2)cc1 (stereo not given) | 1110 |
| O=S(=O)(NCCOc1ccccc1)c1ccccc1Cl | 869 |
| O=C(NC1CCCCC1N1C(=O)CSC1=O)c1ccco1 (stereo not given) | 668 |
| CCC(C)NS(=O)(=O)c1c(C)nn(-c2ccc(-c3ccc(C)cc3)nn2)c1C (stereo not given) | 1040 |
| COC(=O)C1=CN(C2CC2)c2cc(N3CCN(c4ccc(C(C)=O)cc4)CC3)c(F)cc2S1(=O)=O | 906 |
| COc1ccc(C(=O)N2CCC(COc3ccc(C(=O)NC(C)C)cc3)CC2)cc1 | 820 |
| CCCN1CCN(c2ncc(C(=O)Nc3ccccc3)c(N)n2)CC1 | 610 |
| COc1ccc(C2CC(=O)Nc3c(C(=O)O)cn(-c4cccc(C(F)(F)F)c4)c32)cc1OC (stereo not given) | 780 |
| COc1ccccc1CCc1nc(C2CC(=O)N(C3CCCCC3)C2)no1 (stereo not given) | 989 |
| COc1cccc(-c2noc(Cn3c(=O)n(Cc4ccccc4)c(=O)c4sccc43)n2)c1 | 911 |
| Cc1noc(C)c1CNC(=O)c1ccccn1 | 648 |
| Cc1cc(C2CCCN2C(=O)Cc2ccc(Cl)cc2)no1 (stereo not given) | 824 |
| CCn1cc(-c2ccc(Cl)cc2)cc1C(=O)N1CCCCC1 | 1150 |
| CC1CCN(c2cc(-n3cnc(C(=O)Nc4ccc5c(c4)OCO5)c3)ncn2)CC1 | 1060 |
| O=C(NCCn1c(=O)n(Cc2ccc(F)cc2)c2cccnc21)C1CCCC1 | 782 |
| COc1ccc(C2C(C(=O)NCCCN3CCOCC3)c3cc(OC)c(OC)cc3C(=O)N2C)cc1 (stereo not given) | 612 |
| CCc1nc(-c2cc(S(=O)(=O)Nc3ccc(F)cc3F)c(C)s2)cs1 | 994 |

| SMILES | RP-LC retention time [s] |
| --- | --- |
| Cc1cccc(C(=O)NCCc2c[nH]c3ccc(C)cc23)c1 | 890 |
| Cc1c(-c2noc(-c3cccc(F)c3)n2)nnn1Cc1ccccc1 | 1080 |
| CCn1cc(C(=O)NCCCOC(C)C)c(S(=O)(=O)N2CCN(c3cccc(Cl)c3)CC2)n1 | 1060 |
| Cc1ccccc1-c1noc(-c2cccn(CC(=O)NC(C)C)c2=O)n1 | 761 |
| CCOc1nc2ccccc2nc1N1CCCC(C(=O)Nc2cccc(Cl)c2C)C1 (stereo not given) | 1310 |
| Cc1ccc(Cn2c(C)c(CNCc3ccco3)c(C(=O)O)c2C)cc1 | 666 |
| CSc1ccc(-c2noc(Cc3nnc(-c4cc(F)cc(F)c4)o3)n2)cc1 | 1100 |
| Cn1c(C(=O)N2CCN(c3ccccn3)CC2)cc2cc(S(=O)(=O)N3CCCCC3)ccc21 | 699 |
| CCOc1ccc(S(=O)(=O)NC2CCN(c3ccc(=O)[nH]n3)C2)cc1 (stereo not given) | 671 |
| COc1ccc(-c2nnc3n2CCN(Cc2cnn(C)c2C)C3)cc1 | 583 |
| Cc1nc(C)c(C(=O)N2CC(n3cc(COc4ccc(F)cc4)nn3)C2)s1 | 729 |
| Cc1cc(-c2cc(S(=O)(=O)N3CCN(C4CCCCC4)CC3)c(C)s2)n[nH]1 | 657 |
| COc1cc(NC(=O)Cn2nc3c4cc(F)ccc4ncn3c2=O)cc(OC)c1 | 697 |
| Cc1noc(-c2ccnc(-n3cnc(C(=O)NCc4ccccc4)c3)c2)n1 | 806 |
| COc1cc(-c2nc3ncccn3c2Nc2ccc(C)c(Cl)c2)ccc1O | 704 |
| COc1ccccc1CNC(=O)C1CCN(S(=O)(=O)c2cn(C(C)C)cn2)CC1 | 733 |
| Cc1cccc(-c2ocnc2C(=O)NC2CCN(C)CC2)c1 | 618 |
| COCCn1nnnc1C1CC2(CCOCC2)C(=O)N1Cc1ccc(SC)cc1 (stereo not given) | 777 |
| COc1ccc(CC(=O)Nc2cccc(-c3cn4cccnc4n3)c2)cc1 | 610 |
| CCCn1ncc(N2CCC(C(=O)N3CCN(C(C)C)CC3)CC2)cc1=O | 566 |
| COC[C@@H]1CN(S(=O)(=O)c2c(C)noc2C)C[C@H]1c1ccncc1 | 570 |
| CNC(=O)c1ccc2c(c1)CCCN2C(=O)c1ccc(F)cc1 | 698 |
| Fc1ccccc1-c1noc(-c2nc(C3CC3)no2)n1 | 1050 |

| SMILES | RP-LC retention time [s] |
| --- | --- |
| CCC(C(=O)NCCCN1CCN(C)CC1)n1c2ccccc2c2cnn(C)c(=O)c21 (stereo not given) | 560 |
| O=C(NCCCN1CCOCC1)c1cc(-c2ccccc2)nc2n[nH]c(-c3ccccc3)c12 | 610 |
| CC(C)C(=O)N1CCCCCNC(=O)[C@@H]2CCCC[C@@H]21 | 700 |
| COC[C@@H]1CN(Cc2cccc(C#N)c2)C[C@H]1c1ccccn1 | 608 |
| Cn1nccc1-c1cccc(-c2noc(-c3ccccc3Cl)n2)c1 | 1170 |
| CCCN(Cc1cccs1)C(=O)c1cc2c(=O)n(CCC)c3ccccc3n2n1 | 1140 |
| CCc1nc(OCC(=O)NCc2ccc(C)cc2)c2ccccc2n1 | 798 |
| Cc1ccc(Nc2cc(-n3ccnc3)ncn2)cc1 | 651 |
| Cc1nc(N2CCOCC2)c2c(C(=O)Nc3cccc(F)c3)c(C)oc2n1 | 817 |
| CCc1ccc(CNC(=O)C2CC(=O)N(c3ccc4c(c3)CCN4C(C)=O)C2)cc1 (stereo not given) | 932 |
| O=C(Cn1cnc2nc3c(cc2c1=O)CCCC3)Nc1ccccc1Br | 732 |
| O=[N+]([O-])c1cccc(CSc2ccc3nnc(-c4cccs4)n3n2)c1 | 789 |
| COc1ccc(CC(=O)N2CCn3c(C)nnc3C2)cc1OC | 579 |
| Cc1ccccc1NC(=O)C1C(=O)NC2(C)CC1c1ccccc1O2 (stereo not given) | 869 |
| CCS(=O)(=O)c1cccc(C(=O)Nc2nnc(-c3ccsc3)o2)c1 | 662 |
| O=C(NC1CC1)C1CCN(S(=O)(=O)c2cc(-c3noc(C4CC4)n3)cs2)CC1 | 790 |
| CCOc1ccc(-c2noc(-c3nn(-c4ccccc4)ccc3=O)n2)cc1 | 919 |
| O=C(CSc1nnc(CCc2nc3ccccc3[nH]2)o1)NCc1c(F)cccc1F | 571 |
| COc1ccc2c(c1)c(CN1CCC(C(=O)NCCN3CCCCC3)CC1)cn2C | 562 |
| CCCCNC(=O)CCc1nc(N2CCCCCC2)c2c(C)noc2n1 | 842 |
| CCNC(=O)C1CCN(C(=O)Nc2ccc(NC(=O)NCCC(C)C)cc2)CC1 | 662 |
| Cc1cc(C)cc(-c2nc(-c3ccc4c(c3)oc(=O)n4C)no2)c1 | 1060 |
| COc1ccc(NC(=O)c2cnc(-c3ccc(F)cc3)nc2-c2ccncc2)cc1 | 856 |

| SMILES | RP-LC retention time [s] |
| --- | --- |
| Cn1cc(C2=CCN(C(=O)Cc3ccccc3F)CC2)c2cccnc21 | 855 |
| O=C(NCc1ccc(F)cc1)c1ccc2c(c1)nc1n2CCN(Cc2ccccc2)C1=O | 775 |
| O=C(NCCc1ccccc1)N1CCCC1c1nc(-c2ccccc2)no1 (stereo not given) | 922 |
| O=C(CN1CCCc2nc(C3CC3)ncc2C1=O)NCCN1CCOCC1 | 554 |
| CCCn1nc(CNC(=O)c2cccc3[nH]ccc23)c2ccccc21 | 813 |
| CCc1noc(-c2ccnc(-n3ncc(C(=O)N4CCC(C)CC4)c3C)c2)n1 | 1020 |
| CCc1nnc(NC(=O)c2ccc(N3C(=O)CCC3=O)cc2)s1 | 627 |
| Cc1ccccc1CNC(=O)C1(C)CCN(S(=O)(=O)c2ccc(Br)cc2)CC1 | 1030 |
| CCC(=O)N1c2ccc(S(=O)(=O)N3CCCCC3)cc2CC1C(=O)NCc1ccc(Cl)cc1 (stereo not given) | 924 |
| Cc1sc(C)c(S(=O)(=O)Nc2ccc3c(c2)OCCO3)c1-c1cc(C(F)(F)F)on1 | 1070 |
| CCCc1c(C)nc2ncnn2c1N1CCN(c2ccccn2)CC1 | 583 |
| CCc1ccc(-c2cc3c(=O)n(CC(=O)NCC4CCCN4CC)nc(C)n3n2)cc1 (stereo not given) | 713 |
| Cc1nc2nc(-c3ccc(C(C)(C)C)cc3)nn2c(C)c1CC(=O)N1CCC(C)CC1 | 1090 |
| COc1cc(OC)c(NC(=O)Cn2nc3n(c2=O)CCCC3)cc1Cl | 673 |
| O=C(CN1C(=O)N/C(=C\c2ccc(Cl)cc2)C1=O)Nc1ccc(Cl)cc1 | 899 |
| COc1cccc(C(=O)NC2CCN(c3cc(-c4cccs4)[nH]n3)C2)c1OC (stereo not given) | 722 |
| c1ccc(-c2ccc3c(c2)NCCN3)cc1 | 650 |
| O=C(O)CSc1nc2ccccc2s1 | 795 |
| COc1ccc(-c2ncc3c(n2)CCN(C(=O)Nc2ccc(C)cc2Cl)C3)cc1 | 1020 |
| COc1ccc(OC)c(S(=O)(=O)Nc2cc(-c3nc4cccnc4s3)ccc2C)c1 | 888 |
| Cc1cc2[nH]c(C(=O)Nc3c(F)cccc3F)c(CN3CCOCC3)c2s1 | 675 |

Reference: the METLIN SMRT retention time set (Domingo-Almenara et al. 2019)
